Assay results published in US8183242B2, “Aminopyrimidine compounds and their salts, process for preparation and pharmaceutical use thereof” (priority 2004, dated 2012).
Marks after values point to notes of the source that are not given here.

What was measured:
[1] = system: human acute promyelocytic leukemia HL-60 cell; assay: MTT assay, inhibition of proliferation of HL-60 cells cultured in vitro (Bcr-Abl negative control model); assay type: cell-based; conditions: drug 48 h
Description: HL-60: human acute promyelocytic leukemia Cell. The expression of Bcr-Abl tyrosine kinase is negative.
(§1) Cells were grown in a medium containing 10% fetal bovine serum and were kept in the logarithmic growth phase.
(§2) The cells were pre-incubated in an incubator at 37° C. in 5% CO2 for 24 hours. The drug with 6 to 8 different concentrations was added and treated continuously for 48 h.
(§3) After the treatment of the drug, take photos by a phase contrast microscope. Then MTT treatment solution was added into each well and after 4 hours lysed the cells by DMSO. The OD values for each well were determined by using Plarstar ELIASA.
Concentration setting: 5-8 concentrations within the range of 0.001-10 μM were set, and each concentration is set in triplicate.

[2] = system: transplant tumor of human granulocytic leukemia K562; assay: Test Example 2: therapeutic effect on naked mice with transplant tumor of human granulocytic leukemia K562; conditions: for Body weight before dissection d0 / TV x ± SD d0: d0 = grouping and first administration; for Body weight before dissection dn / TV x ± SD dn: dn = day 21; for CR: complete extinction (complete resolution) of tumor: end of experiment (Day 21), mice with CR/group; for mice in which the tumor was extinct: 75 mg/kg oral gavage once per day
Description: Animals were allowed to acclimatize the environment for one week, and then the animals were inoculated subcutaneously human leukemia K562 cells. When the tumors have grown to a volume of 100-300 mm^3, the animals were randomly grouped (d0). The naked mice were administered by oral gavage. […] The animals were administered once per day for 21 days. Measured the volume of the tumors 2-3 times per week and weighed the animals followed by recording the data. The formula for calculating the volume of tumor (V): V=½×a×b^2, wherein a represents the length and b represents the width.
The mice were continuously administered by oral gavage once per day for 21 days.

[3] = system: transplant tumor of human granulocytic leukemia K562; assay: Test Example 3: therapeutic effect of HH-GV-678 and Gleevec on naked mice with transplant tumor of human granulocytic leukemia K562; conditions: for Body weight before dissection d0 / TV x ± SD d0: d0 = grouping and first administration; for Body weight before dissection dn / TV x ± SD dn: dn = day 21; for CR: complete resolution: end of experiment, mice with CR/group
Source text: Animals were allowed to acclimatize the environment for one week, and then the animals were inoculated subcutaneously human leukemia K562 cells. When the tumors have grown to a volume of 100-300 mm^3, the animals were randomly grouped (d0). […] Measured the volume of the tumors 2-3 times per week and weighed the animals followed by recording the data. The formula for calculating the volume of tumor (V): V =1/2×a×b^2, wherein a represents the length and b represents the width.

[4] = system: human chronic myelogenous leukemia K562 cell (expressing P210 Bcr-Abl tyrosine kinase); assay: MTT assay, inhibition of proliferation of K562 cells cultured in vitro
Description: as §1, §2, §3

[5] = 37.5 mg/kg oral gavage once per day 21 days
[6] = 75 mg/kg oral gavage once per day 21 days
[7] = 150 mg/kg oral gavage once per day 21 days
[8] = 150 mg/kg each time, oral gavage twice per day 21 days

With `CS(=O)(=O)O.Cc1ncc(NC(=O)c2ccc(CN3CCN(C)CC3)c(C(F)(F)F)c2)cc1Nc1nccc(-c2cccnc2)n1` [HH-GV-F, 4-((4-methylpiperazin-1-yl)methyl)-N-[6-methyl-5-[[4-(pyrid-3-yl)pyrimidin-2-yl]amino]pyrid-3-yl]-3-(trifluoromethyl)-benzamide methanesulfonic acid salt] the IC50 [1] was no less than 10 µM, the “RTV x ± SD” value [2, 5] was 2.85 ± 3.18 and the T/C [2, 5] was 40.4* %. The “effect on the growth of K562 tumor” value [2, 5] was “significantly inhibited the growth of K562 tumor, but did not cause the tumor extinct”, the “Body weight before dissection d0” value [2, 5] was 19.3 gram and the “TV x ± SD d0” value [2, 5] was 119 ± 51 mm^3. The “Body weight before dissection dn” value [2, 5] was 18.8 gram, the “TV x ± SD dn” value [2, 5] was 294 ± 255 mm^3 and the “CR: complete extinction (complete resolution) of tumor” value (from here on “CR: complete extinction”) [2, 5] was 0/6. The “RTV x ± SD” value [2, 6] was 1.38 ± 3.08, the T/C [2, 6] was 19.6* % and the “Body weight before dissection d0” value [2, 6] was 19.2 gram. For the same compound, the “TV x ± SD d0” value [2, 6] was 127 ± 46 mm^3, the “Body weight before dissection dn” value [2, 6] was 19.3 gram and the “TV x ± SD dn” value [2, 6] was 95 ± 199 mm^3. For the same compound, the “CR: complete extinction” value [2, 6] was 4/6, the “mice in which the tumor was extinct” value ([2]; Day 9) was 1/6 and the “mice in which the tumor was extinct” value ([2]; Day 12) was 4/6. For the same compound, the “mice in which the tumor was extinct” value ([2]; Day 15) was 5/6, the “RTV x ± SD” value [3, 6] was 0 ± 0 and the T/C [3, 6] was 0* %. For the same compound, the “Body weight before dissection d0” value [3, 6] was 24.0 gram, the “TV x ± SD d0” value [3, 6] was 168 ± 65 mm^3 and the “Body weight before dissection dn” value [3, 6] was 24.7 gram. For the same compound, the “TV x ± SD dn” value [3, 6] was 0 ± 0 mm^3, the “CR: complete resolution” value [3, 6] was 7/8 and the “complete resolution (CR) of tumors, mice of the group” value (from here on “complete resolution (CR) of tumors”) ([3]; 75 mg/kg oral gavage once per day, Day 6) was 3/8. For the same compound, the “complete resolution (CR) of tumors” value ([3]; 75 mg/kg oral gavage once per day, Day 9) was 7/8, the “complete resolution (CR) of tumors” value ([3]; 75 mg/kg oral gavage once per day, Day 12) was 8/8 and the “RTV x ± SD” value [3, 7] was 0 ± 0. The T/C [3, 7] was 0* %, the “Body weight before dissection d0” value [3, 7] was 24.3 gram and the “TV x ± SD d0” value [3, 7] was 152 ± 37 mm^3. The “Body weight before dissection dn” value [3, 7] was 23.9 gram, the “TV x ± SD dn” value [3, 7] was 0 ± 0 mm^3 and the “CR: complete resolution” value [3, 7] was 8/8. The “complete resolution (CR) of tumors” value ([3]; 150 mg/kg oral gavage once per day, Day 6) was 6/8, the “complete resolution (CR) of tumors” value ([3]; 150 mg/kg oral gavage once per day, Day 9) was 8/8 and the toxicity ([3]; mouse, in vivo) was “relatively lower”.

`Cc1ccc(NC(=O)c2ccc(CN3CCN(C)CC3)cc2)cc1Nc1nccc(-c2cccnc2)n1` [Gleevec, Imatinib, reference compound] was tested, and the “RTV x ± SD” value [2, 6] was 8.56 ± 7.09, the T/C [2, 6] was 121.0% and the “Body weight before dissection d0” value [2, 6] was 19.3 gram. The “TV x ± SD d0” value [2, 6] was 153 ± 68 mm^3, the “Body weight before dissection dn” value [2, 6] was 15.6 gram and the “TV x ± SD dn” value [2, 6] was 971 ± 154 mm^3. The “CR: complete extinction” value [2, 6] was 0/6, the mice died ([2]; 150 mg/kg group, Day 18, death considered to be related to the tumor) was 1/6 and the “RTV x ± SD” value [2, 7] was 8.30 ± 5.65. The T/C [2, 7] was 117.7%, the “Body weight before dissection d0” value [2, 7] was 20.3 gram and the “TV x ± SD d0” value [2, 7] was 127 ± 45 mm^3. For the same compound, the “Body weight before dissection dn” value [2, 7] was 16.3 gram, the “TV x ± SD dn” value [2, 7] was 824 ± 170 mm^3 and the “CR: complete extinction” value [2, 7] was 0/6. The “effect on the growth of the tumor” value ([2]; present protocol: 75 and 150 mg/kg oral gavage once per day 21 days) was “did not have significant effect on the growth of the tumor”, the T/C [3, 8] was 34.2* % and the “Body weight before dissection d0” value [3, 8] was 24.1 gram. For the same compound, the “TV x ± SD d0” value [3, 8] was 144 ± 33 mm^3, the “Body weight before dissection dn” value [3, 8] was 20.6 gram and the “TV x ± SD dn” value [3, 8] was 501 ± 347 mm^3. The “CR: complete resolution” value [3, 8] was 2/8 and the “complete resolution (CR) of tumors” value ([3]; 150 mg/kg each time, oral gavage twice per day, Day 12) was 1/8.

For `CS(=O)(=O)O.Cc1ncc(NC(=O)c2ccc(CN3CCN(C)CC3)c(Cl)c2)cc1Nc1nccc(-c2cccnc2)n1` [HH-GV-E, 4-((4-methylpiperazin-1-yl)methyl)-N-[6-methyl-5-[[4-(pyrid-3-yl)pyrimidin-2-yl]amino]pyrid-3-yl]-3-chloro-benzamide methanesulfonic acid salt], the IC50 [1] was greater than 10 µM, the “RTV x ± SD” value [2, 6] was 9.60 ± 6.51 and the T/C [2, 6] was 103.6%. For the same compound, the “Body weight before dissection d0” value [2, 6] was 18.5 gram, the “TV x ± SD d0” value [2, 6] was 130 ± 58 mm^3 and the “Body weight before dissection dn” value [2, 6] was 14.2 gram. For the same compound, the “TV x ± SD dn” value [2, 6] was 954 ± 242 mm^3, the “CR: complete extinction” value [2, 6] was 0/6 and the “RTV x ± SD” value [2, 7] was 3.24 ± 1.65. For the same compound, the T/C [2, 7] was 47.4* %, the “effect on the growth of K562 tumor” value [2, 7] was “significant inhibition effect on the growth of K562 tumor” and the “Body weight before dissection d0” value [2, 7] was 18.8 gram. The “TV x ± SD d0” value [2, 7] was 149 ± 31 mm^3, the “Body weight before dissection dn” value [2, 7] was 15.2 gram and the “TV x ± SD dn” value [2, 7] was 455 ± 214 mm^3. For the same compound, the “CR: complete extinction” value [2, 7] was 0/6, the “selectivity for the target” value ([4]; HL-60 versus K562 cells) was greater than 125 folds and the IC50 ([4]; Homo sapiens, K562, 48 h, read-out: IC50, inhibition of proliferation of leukemia cells) was 0.08 µM.
